{
  "source": "patent US9522163B2",
  "about": "“Methods of treating hepatitis” (priority 2002, dated 2016)",
  "key": {"[1]": {"tested_on": "TNF-α/D-gal-induced liver injury", "procedure": "Male C57BL/6J ([…], Bar Harbor, Me.), 8-12-wk-old inos^−/− mice and wild type littermates (bred/maintained at the University of Pittsburgh) were used for in vivo experiments.\n10 mg/kg subcutaneously (s.c.), Alexis Biochem., San Diego, Calif.) or cobalt protoporphyrin (CoPP, 5 mg/kg, intraperitoneally (i.p.), Frontier Scientific, Logan, Utah). […] Where indicated, acetaminophen (Sigma Chem. Co.; St Louis, Mo.) was administered (500 mg/kg, i.p.).\nA CO analyzer (Interscan, Chatsworth, Calif.) was used to measure CO levels continuously in the chamber. CO concentrations were maintained at 250 ppm at all times. Mice were placed in the exposure chamber as required.\nWhether HO-1 is protective against acute hepatic failure was investigated. Cobalt protoporphyrin (5 mg/kg, i.p.) was administered to male C57BL/6J mice. Twenty-four hours later, TNF-α/D-gal (0.3 μg/8 mg/mouse, i.p., respectively) was administered to the mice. Serum alanine aminotransferase (ALT) levels in the mice were measured 8 hours after administration of TNF-α/D-gal.\nAfter receiving TNF-α/D-gal, mice were returned to the CO exposure chamber and their serum was analyzed for ALT levels 6-8 hr later.\nTo generate the data presented in FIGS. 11A-11H, liver samples from mice treated with TNF-α/D-gal in the presence and absence of CO (250 ppm) for 8 hr were sectioned and stained for hematoxylin & eosin (H&E), activated caspase 3 (as indicated by an increase in red intensity), and for TUNEL positive cells (as demarcated by the increased green cellular staining; a marker of cell death). Nuclei stained blue.\nL-NIL was administered 2 hr prior to CO. CO-treated animals were then pre-treated (250 ppm) for 1 hr prior to TNF-α/D-gal.\nVP was selectively designed to deliver NO directly to the liver. One hour after the initial VP dose, the animals were exposed to CO for 1 hr prior to administration of TNF-α/D-gal (see above). Serum ALT levels were determined 6-8 hr later.\nThese mice and inos^−/− mice were then administered CoPP. L-NIL was maintained in the water throughout the experiment. Control and inos^−/− mice received normal drinking water. Twenty-four hr after administration of CoPP, TNF-α/D-gal was administered and serum ALT determined 6-8 hr later."}, "HO-1": {"tested_on": "HO-1", "assay": "Liver HO-1 expression (immunoblot)", "assay_type": "in vivo, mice", "conditions": "L-NIL 5 mg/kg i.p., room air", "procedure": "Western blot analysis was performed on primary hepatocytes in culture or from liver homogenates with antibodies to iNOS (Transduction Laboratories, Lexington, Ky.; 1:1000), HO-1 (Calbiochem; 1:2000), or β-actin (Sigma Chemical; 1:5000). Thirty μg protein in cell culture experiments or 100 μg protein from liver homogenates was loaded per well for SDS-PAGE.\nTo assess the role of iNOS on TNF-α/D-gal-induced HO-1 expression in the liver (data presented in FIG. 16), mice were administered L-NIL (5 mg/kg, i.p.) 2 hr prior to pre-treatment with CO (250 ppm) and every 2 hr thereafter. Control mice received L-NIL and remained in room air."}, "iNOS": {"tested_on": "iNOS", "assay": "iNOS promoter luciferase reporter assay in hepatocytes", "assay_type": "cell-based", "conditions": "BAY 11-7082 10 μM 1 hr prior to CO", "procedure": "In some experiments, gene transfer of an IκBα superrepressor (Hellerbrand et al., Hepatology 27:1285-1295 (1998)) or β-galactosidase using adenoviral vectors (10 pfu/cell) was performed 12 hours prior to TNF-α/ActD treatment. NF-κB activation was evaluated using a luciferase reporter assay as described in Chow et al. (J. Biol. Chem. 274: 10689-10692 (1999)). Briefly, hepatocytes were co-transfected with NF-κB reporter constructs (pGL3-kappaβ luciferase, 100 ng/well; and pIEP-Lac-z 0.5 μg/well) using Lipofectin™ (Invitrogen, Carlsbad, Calif.) as instructed by the manufacturer. Evaluation of iNOS expression was performed using a luciferase reporter assay as described in Lowenstein et al. (Proc. Natl. Acad. Sci. U.S.A 90: 9730-9734 (1993)). Briefly, hepatocytes were co-transfected with iNOS promoter reporter constructs (pXP2; 1 μg/well) and pIEP-LacZ (0.5 μg/well) as described above.\nHepatocytes were transfected with plasmids as described above and treated with various stimuli 24 hours after transfection. Luciferase activity (reported as arbitrary units; A.U.) was assayed 6 hours after initiation of treatment, using a luciferase assay kit (Promega, Madison, Wis.) and a Berthold Luminometer. Results were corrected for transfection efficiency and protein concentration. […]"}, "[2]": {"tested_on": "mouse primary hepatocytes", "assay": "TNF-α/ActD-induced cell death, crystal violet viability", "assay_type": "cell-based", "conditions": "BAY 11-7082 (10 μM) to inhibit NF-κB activation"}, "[3]": {"tested_on": "mouse primary hepatocytes", "assay": "TNF-α/ActD-induced cell death, crystal violet viability", "assay_type": "cell-based", "procedure": "Mouse primary hepatocytes were harvested from C57BL/6J, mkk3^−/−, inos^−/− (in-house breeding colony), or hmox-1^−/− mice as described in Kim et al. (J. Biol. Chem. 272: 1402-1411 (1997)). Hepatocytes were used on days 1-3 following harvest.\nCells were treated with TNF-α (10 ng/ml) and actinomycin-D (Act-D; 200 ng/ml, Sigma Chemical Co. St. Louis, Mo.) to induce cell death.\nWhether exogenous CO is protective against hepatocyte cell death in vitro was investigated. To generate the data presented in FIG. 2, mouse hepatocytes were pre-incubated with CO (250 ppm) for 1 hr (standard pre-treatment time for all experiments) prior to addition of TNF-α/Act-D (10 ng/200 ng/ml respectively). Cells were maintained in CO for the duration of the experiment. Twelve hours afterward, cell viability was measured as described in Kim et al. (J. Biol. Chem. 272: 1402-1411 (1997)). Adenoviral experiments involved incubating hepatocytes overnight with 10 pfu/cell of the adenovirus prior to addition of TNF-α/ActD, and then assaying for viability using crystal violet. The roles of signaling molecules guanylyl cyclase and p38 MAPK were also investigated in this model. To evaluate the role of cGMP and confirm the role of NF-κB, hepatocytes were treated separately with the soluble guanylate cyclase (sGC) inhibitor 1H-[1,2,4]Oxadiazolo[4,3-a]quinoxalin-1-one (ODQ; Calbiochem; 2-10 μM) or the NF-κB inhibitor BAY 11-7082, (10 μM). Cells were treated with the inhibitors for 1 hour prior to the 1 hour pretreatment with CO. TNF-α/ActD was then added and the cells tested for viability 12 hours later. NF-κB activation was critical to the protection elicited by CO while cGMP was not involved.\nTo generate the data presented in FIG. 9, mouse hepatocytes were isolated from inos^−/− or from wild type C57BL/6J mice, which were then pre-treated for 1 hr with L-NIO (1 mM) to inhibit iNOS prior to CO administration. Those groups exposed to CO received a one-hour pretreatment prior to addition of TNF-α/ActD and were then returned to CO exposure.\nTo generate the data presented in FIG. 19, mouse hepatocytes were isolated from HO-1 null mice (hmox-1^−/−) and wild type (C57BL/6J) littermates, pretreated for 1 hour with CO (250 ppm), and treated with TNF-α/ActD. Viability was assayed as described above.\nTo generate the data presented in FIG. 20, mouse hepatocytes were isolated from HO-1 null mice (hmox-1^−/−) and wild type (C57BL/6J) littermates, pretreated with the NO donor SNAP (500 μM), and then treated with TNF-α/ActD 1 hour later."}, "[4]": {"conditions": "SNAP 500 μM, 1 hour before TNF-α/ActD"}},
  "data": [
    {"smiles": "CC(=N)NCCCC[C@H](N)C(=O)O.Cl.Cl", "note": "[L-NIL, L-N6-(1-iminoethyl)-lysine-dihydrochloride, reference compound]", "values": [
      {"measurement": "Severity of liver injury, L-NIL alone", "setting": "[1]; L-NIL 4.5 mM in drinking water, TNF-α/D-gal", "result": "did not change the severity of injury"},
      {"measurement": "Liver HO-1 expression, L-NIL alone", "setting": "HO-1", "result": "minimal effect"}
    ]},
    {"smiles": "C=Cc1c2[n-]c(c1C)/C=c1\\[n-]/c(c(C)c1C=C)=C\\c1[n-]c(c(CCC(=O)O)c1C)/C=c1\\[n-]c(c(C)c1CCC(=O)O)=C2.[Sn+4]", "note": "[SnPP, tin protoporphyrin]", "values": [
      {"measurement": "Effect on the protective effects of CO", "setting": "[1]; SnPP 50 μmol/kg s.c. 5 hr prior to CO, TNF-α/D-gal", "result": "significantly diminished"},
      {"measurement": "Effect on protection by the NO donor V-PYRRO/NO", "setting": "[1]; TNF-α/D-gal with SnPP", "result": "abrogated"},
      {"measurement": "Effect of administration in the absence of TNF-α/D-gal", "setting": "[1]; data not shown", "result": "no deleterious or protective effects"}
    ]},
    {"smiles": "Cc1ccc(S(=O)(=O)/C=C/C#N)cc1", "note": "[BAY 11-7082, reference compound]", "values": [
      {"measurement": "iNOS luciferase reporter activity with NF-κB inhibitor", "setting": "iNOS", "result": "decreased reporter activity"},
      {"measurement": "Effect on the protective effects of CO", "setting": "[2]", "result": "abrogated"}
    ]},
    {"smiles": "CC(=O)N[C@H](C(=O)O)C(C)(C)SN=O", "note": "[SNAP, s-nitroso-N-acetyl-penicillamine, reference compound]", "values": [
      {"measurement": "TNF-α/ActD-induced cell death, hmox-1−/− hepatocytes", "setting": "[3]; [4]", "result": "did not provide significant protection"},
      {"measurement": "TNF-α/ActD-induced cell death, wild type hepatocytes", "setting": "[3]; [4]", "result": "significantly protected against cell death"}
    ]},
    {"smiles": "O=c1onc2cnc3ccccc3n12", "note": "[ODQ, 1H-[1,2,4]Oxadiazolo[4,3-a]quinoxalin-1-one, reference compound]", "values": [
      {"measurement": "Effect on protection provided by CO", "setting": "[3]; ODQ 2-10 μM, 1 hour prior to CO pretreatment", "result": "did not reverse the protection"}
    ]},
    {"smiles": "C=CC1=C(C)c2cc3[n-]c(cc4nc(cc5[n-]c(cc1n2)c(C)c5CCC(=O)[O-])C(CCC(=O)[O-])=C4C)c(C)c3C=C.[Co+2].[H+].[H+]", "note": "[CoPP, cobalt protoporphyrin]", "values": [
      {"measurement": "Liver injury as measured by serum ALT", "setting": "[1]; 5 mg/kg i.p. 24 h before TNF-α/D-gal, ALT 8 hours after, C57BL/6J mice", "result": "prevented liver injury"},
      {"measurement": "Liver injury", "setting": "[1]; CoPP with and without L-NIL (4.5 mM drinking water), TNF-α/D-gal 24 hours after CoPP", "result": "protected from liver injury"},
      {"measurement": "Reduction in serum ALT", "setting": "[1]; inos−/− mice, CoPP 24 hr before TNF-α/D-gal, 6-8 hr later", "result": "> 50", "unit": "%"}
    ]}
  ]
}
